± gives the expanded uncertainty stated by the source.
Experiment: xn = mol fraction of the nth substance listed
Settings: Liquid

c1ccc2[nH]ccc2c1 [1H-indole] + Cc1ccc2ccccc2c1
specific volume [m3/kg], 100 kPa
Settings | 293.15 K | 303.15 K | 313.15 K | 323.15 K | 333.15 K | 343.15 K | 353.15 K
x1 = 0.25 | 0.0009744 ± 7e-07 | 0.0009821 ± 9e-07 | 0.0009893 ± 1e-06 | 0.0009968 ± 1.2e-06 | 0.001005 ± 1.3e-06 | 0.001013 ± 1.5e-06 | 0.00102 ± 1.6e-06
x1 = 0.5 | 0.0009522 ± 7e-07 | 0.0009621 ± 9e-07 | 0.0009692 ± 1e-06 | 0.0009765 ± 1.2e-06 | 0.0009836 ± 1.3e-06 | 0.0009909 ± 1.4e-06 | 0.0009983 ± 1.6e-06
x1 = 0.75 | – | 0.0009406 ± 8e-07 | 0.0009471 ± 1e-06 | 0.0009539 ± 1.1e-06 | 0.0009609 ± 1.3e-06 | 0.0009674 ± 1.4e-06 | 0.0009747 ± 1.6e-06
x1 = 1 | – | – | – | 0.0009295 ± 1.1e-06 | 0.000936 ± 1.2e-06 | 0.0009428 ± 1.4e-06 | 0.0009499 ± 1.5e-06

specific volume [m3/kg], 333.15 K, Constant-volume piezometry
Settings | x1 = 0.25 | x1 = 0.5 | x1 = 0.75 | x1 = 1
100 kPa | 0.001005 ± 3e-07 | 0.0009836 ± 3e-07 | 0.0009609 ± 3e-07 | 0.000936 ± 3e-07
10000 kPa | 0.0009988 ± 3e-07 | 0.0009782 ± 3e-07 | 0.000956 ± 3e-07 | 0.0009315 ± 3e-07
20000 kPa | 0.000993 ± 3e-07 | 0.000973 ± 3e-07 | 0.0009513 ± 3e-07 | 0.0009273 ± 3e-07
30000 kPa | 0.0009876 ± 4e-07 | 0.0009679 ± 4e-07 | 0.0009467 ± 4e-07 | 0.0009228 ± 4e-07
40000 kPa | 0.0009824 ± 5e-07 | 0.0009633 ± 4e-07 | 0.0009422 ± 4e-07 | 0.0009192 ± 4e-07
50000 kPa | 0.0009776 ± 5e-07 | 0.0009586 ± 5e-07 | 0.0009379 ± 5e-07 | 0.0009157 ± 5e-07
60000 kPa | 0.0009732 ± 6e-07 | 0.0009544 ± 6e-07 | 0.0009341 ± 6e-07 | –
70000 kPa | 0.0009685 ± 6e-07 | 0.0009504 ± 6e-07 | 0.0009304 ± 6e-07 | –
80000 kPa | 0.0009645 ± 7e-07 | 0.0009464 ± 7e-07 | 0.0009267 ± 7e-07 | –
90000 kPa | 0.0009607 ± 8e-07 | 0.0009427 ± 8e-07 | 0.0009233 ± 8e-07 | –
100000 kPa | 0.0009569 ± 9e-07 | 0.0009391 ± 8e-07 | 0.0009198 ± 8e-07 | –
110000 kPa | 0.0009533 ± 9e-07 | 0.0009358 ± 9e-07 | 0.0009167 ± 9e-07 | –
120000 kPa | 0.0009497 ± 1e-06 | 0.0009325 ± 1e-06 | 0.0009134 ± 1e-06 | –
130000 kPa | 0.0009464 ± 1.1e-06 | 0.0009292 ± 1e-06 | 0.0009104 ± 1e-06 | –
140000 kPa | 0.0009432 ± 1.1e-06 | 0.0009262 ± 1.1e-06 | 0.0009077 ± 1.1e-06 | –
150000 kPa | 0.00094 ± 1.2e-06 | 0.0009231 ± 1.2e-06 | 0.0009048 ± 1.2e-06 | –
160000 kPa | 0.0009369 ± 1.3e-06 | 0.0009202 ± 1.3e-06 | 0.000902 ± 1.2e-06 | –
170000 kPa | 0.000934 ± 1.3e-06 | 0.0009174 ± 1.3e-06 | – | –
180000 kPa | – | 0.0009148 ± 1.4e-06 | – | –
190000 kPa | – | 0.0009122 ± 1.5e-06 | – | –
200000 kPa | – | 0.0009095 ± 1.5e-06 | – | –
210000 kPa | – | 0.000907 ± 1.6e-06 | – | –
220000 kPa | – | 0.0009047 ± 1.6e-06 | – | –
230000 kPa | – | 0.0009023 ± 1.7e-06 | – | –
240000 kPa | – | 0.0008999 ± 1.8e-06 | – | –
250000 kPa | – | 0.0008977 ± 1.8e-06 | – | –
260000 kPa | – | 0.0008956 ± 1.9e-06 | – | –
270000 kPa | – | 0.0008934 ± 2e-06 | – | –
